Reference: PMC5729930, “Bitopic fluorescent antagonists of the A2A adenosine receptor based on pyrazolo[4,3-e][1,2,4]triazolo[1,5-c]pyrimidin-5-amine functionalized congeners” (MedChemComm, 2017)

Target: 45 diverse receptors
Assay: PDSP comprehensive off-target screen
Format: binding
Settings: PDSP comprehensive screen at 45 targets
Protocol: . Off-target binding activities at 45 diverse receptors were determined by PDSP[25] for selected compounds: 6c and 13 (ESI ^†). […]; 1.92 μM, 5HT2B receptor. Thus, the primary amine precursor of the fluorescent conjugates 10–12 was not promiscuous in its interaction with other proteins, i.e. this chemical series is not associated with pan-assay interference compounds.[26]
Chinese hamster ovary (CHO) cells stably expressing the human A2AAR were cultured in Dulbecco's Modified Eagle Medium (Mediatech, Manassas, VA) supplemented with 10% fetal bovine serum, 100 units/ml penicillin, 100 µg/ml streptomycin and 2 µmol/ml glutamine. Cells were plated in 96-well plates in 100 µl medium. After 24 h, the medium was removed and cells were washed three times with 100 µl DMEM, containing 50 mM HEPES, pH 7.4. Cells were treated with antagonists (or medium for control) in the presence of rolipram (10 µM) and adenosine deaminase (3 units/ml) and 5 min later with agonist for 20 min. The reaction was terminated by removal of the supernatant, and cells were lysed upon the addition of 100 µl of lysis buffer (0.3% Tween-20). cAMP was measured using ALPHAScreen cAMP kits (PerkinElmer, Boston, MA) as instructed by the manufacturer.
Refer to: http://pdspdb.unc.edu for full list of comprehensive screen at 45 targets.
5HT2A serotonin receptor: […]

Question: For `N.Nc1nc2c(cnn2CCCc2ccc(OCc3ccc(S(=O)(=O)O)cc3)cc2)c2nc(-c3ccco3)nn12` [compound 13], which “Off-target interactions (Ki in radioligand binding inhibition < 10 µM)” value is on record?
Answer: None detected
